Values of other authors as cited in PMC9775433 (Cancers, 2022).
Read-outs that look alike come from different tables or passages of the source.

What was measured:
CSNK1D = test system: CSNK1D; design: method as in earlier work; settings: cited from earlier work
refractory solid tumors = test system: refractory solid tumors; design: method as in PMID 30586316; settings: cited from earlier work
[1] = in vivo; cited from earlier work

SMILES: CCN(CC)CCNC(=O)c1c(C)[nH]c(/C=C2\C(=O)Nc3ccc(F)cc32)c1C [sunitinib]
- OS range (refractory solid tumors; 300 mg Q1W): 1.2–15 months
- PFS range (refractory solid tumors; 300 mg Q1W): 0.7–11 months
- median OS (refractory solid tumors; 300 mg Q1W): 3.1 months
- median PFS (refractory solid tumors; 300 mg Q1W): 2.2 months
- OS range (refractory solid tumors; 700 mg Q2W): 1.3−19.6 months
- PFS range (refractory solid tumors; 700 mg Q2W): 0.5–11 months
- median OS (refractory solid tumors; 700 mg Q2W): 4.9 months
- median PFS (refractory solid tumors; 700 mg Q2W): 2.6 months
- OS range (refractory solid tumors; all patients): 0.8–27 months
- PFS range (refractory solid tumors; all patients): 0.5–11 months
- median overall survival (OS) (refractory solid tumors; all patients): 4.9 months
- median progression free survival (PFS) (refractory solid tumors; all patients): 2.5 months
- apparent volume of distribution [1]: 2230 L
